Measured values as given in the supplement of paper PMC10307832.

Key:
Assay in all cases: relative viability (nuclei count vs DMSO), 5 days (fraction); higher = more cells survive
[1] = tested on: NCI-H23
How it was run: (§1)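 After 5 days of treatment, lung cancer cells in 1536-well plates were fixed and stained in a single step (final 0.05% Triton X-100, 1% formaldehyde, 1 ug/ml Hoechst) and their nuclei counted on 4× images. Treatment had been applied by pin tool the day after seeding as one drug alone or as a fixed anchor-drug dose with five library-drug doses (not always all listed) in √10 steps. Relative viability is the nuclei count of treated wells divided by that of vehicle wells, and values are medians of duplicate plates.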

[2] = tested on: EKVX
How it was run: as §1

[3] = tested on: NCI-H727
How it was run: as §1

[4] = tested on: NCI-H1666
How it was run: as §1

[5] = tested on: NCI-H647
How it was run: as §1

[6] = tested on: NCI-H838
How it was run: as §1

[7] = tested on: NCI-H1437
How it was run: as §1

[8] = tested on: SK-LU-1
How it was run: as §1

[9] = tested on: NCI-H322M
How it was run: as §1

[10] = tested on: NCI-H460
How it was run: as §1

[11] = tested on: NCI-H441
How it was run: as §1

[12] = tested on: NCI-H1975
How it was run: as §1

[13] = tested on: LCLC-97TM1
How it was run: as §1

[14] = tested on: NCI-H1650
How it was run: as §1

[15] = tested on: NCI-H1915
How it was run: as §1

[16] = tested on: NCI-H596
How it was run: as §1

[17] = tested on: PC-3 [JPC-3]
How it was run: as §1

[18] = tested on: NCI-H1792
How it was run: as §1

[19] = tested on: NCI-H520
How it was run: as §1

## CN1CCN(CCOc2cc(OC3CCOCC3)c3c(Nc4c(Cl)ccc5c4OCO5)ncnc3c2)CC1 [Saracatinib] + CC1(C)CCC(c2ccc(Cl)cc2)=C(CN2CCN(c3ccc(C(=O)NS(=O)(=O)c4ccc(N[C@H](CCN5CCOCC5)CSc5ccccc5)c(S(=O)(=O)C(F)(F)F)c4)cc3)CC2)C1 [Navitoclax] (partner 0.5 µM)
[1]; first compound 0.02 µM
  relative viability: 0.815
[1]; first compound 0.6325 µM
  relative viability: 0.847
[1]; first compound 2 µM
  relative viability: 0.52
[2]; first compound 0.02 µM
  relative viability: 0.902
[2]; first compound 0.2 µM
  relative viability: 0.88
[2]; first compound 0.6325 µM
  relative viability: 0.903
[2]; first compound 2 µM
  relative viability: 0.357
[3]; first compound 0.02 µM
  relative viability: 0.499
[3]; first compound 0.2 µM
  relative viability: 0.285
[3]; first compound 0.6325 µM
  relative viability: 0.48
[3]; first compound 2 µM
  relative viability: 0.225
[4]; first compound 0.02 µM
  relative viability: 1.04
[4]; first compound 0.2 µM
  relative viability: 0.928
[4]; first compound 0.6325 µM
  relative viability: 1.06
[4]; first compound 2 µM
  relative viability: 0.667
[5]; first compound 0.02 µM
  relative viability: 1.15
[5]; first compound 0.2 µM
  relative viability: 0.959
[5]; first compound 0.6325 µM
  relative viability: 1.18
[5]; first compound 2 µM
  relative viability: 0.764
[6]; first compound 0.02 µM
  relative viability: 1.15
[6]; first compound 0.2 µM
  relative viability: 1.02
[6]; first compound 0.6325 µM
  relative viability: 1.03
[6]; first compound 2 µM
  relative viability: 0.918
[7]; first compound 0.02 µM
  relative viability: 1.11
[7]; first compound 0.2 µM
  relative viability: 1.12
[7]; first compound 0.6325 µM
  relative viability: 1.11
[7]; first compound 2 µM
  relative viability: 1.03
[8]; first compound 0.02 µM
  relative viability: 0.752
[8]; first compound 0.2 µM
  relative viability: 0.535
[8]; first compound 0.6325 µM
  relative viability: 0.527
[8]; first compound 2 µM
  relative viability: 0.412
[9]; first compound 0.02 µM
  relative viability: 1.28
[9]; first compound 0.2 µM
  relative viability: 1.29
[9]; first compound 0.6325 µM
  relative viability: 1.31
[9]; first compound 2 µM
  relative viability: 1.13
[10]; first compound 0.02 µM
  relative viability: 1.16
[10]; first compound 0.2 µM
  relative viability: 0.457
[10]; first compound 0.6325 µM
  relative viability: 1.22
[10]; first compound 2 µM
  relative viability: 0.813
[11]; first compound 0.02 µM
  relative viability: 0.566
[11]; first compound 0.2 µM
  relative viability: 0.681
[11]; first compound 0.6325 µM
  relative viability: 0.832
[11]; first compound 2 µM
  relative viability: 0.624
[12]; first compound 0.02 µM
  relative viability: 1.17
[12]; first compound 0.6325 µM
  relative viability: 1.06
[12]; first compound 2 µM
  relative viability: 0.749
[13]; first compound 0.02 µM
  relative viability: 0.422
[13]; first compound 0.2 µM
  relative viability: 0.356
[13]; first compound 0.6325 µM
  relative viability: 0.501
[13]; first compound 2 µM
  relative viability: 0.46
[14]; first compound 0.02 µM
  relative viability: 1.17
[14]; first compound 0.2 µM
  relative viability: 1.1
[14]; first compound 0.6325 µM
  relative viability: 0.983
[14]; first compound 2 µM
  relative viability: 0.981
[15]; first compound 0.02 µM
  relative viability: 0.813
[15]; first compound 0.2 µM
  relative viability: 0.456
[15]; first compound 0.6325 µM
  relative viability: 0.8
[15]; first compound 2 µM
  relative viability: 0.757
[16]; first compound 0.02 µM
  relative viability: 0.952
[16]; first compound 0.2 µM
  relative viability: 0.711
[16]; first compound 0.6325 µM
  relative viability: 0.925
[16]; first compound 2 µM
  relative viability: 0.682
[17]; first compound 0.02 µM
  relative viability: 0.806
[17]; first compound 0.2 µM
  relative viability: 0.754
[17]; first compound 0.6325 µM
  relative viability: 0.726
[17]; first compound 2 µM
  relative viability: 0.508
[18]; first compound 0.02 µM
  relative viability: 0.635
[18]; first compound 0.2 µM
  relative viability: 0.489
[18]; first compound 0.6325 µM
  relative viability: 0.723
[18]; first compound 2 µM
  relative viability: 0.583
[19]; first compound 0.02 µM
  relative viability: 1.1
[19]; first compound 0.2 µM
  relative viability: 0.993
[19]; first compound 0.6325 µM
  relative viability: 0.753
[19]; first compound 2 µM
  relative viability: 0.583
